Source: ChEMBL document CHEMBL1143427, “Interactions of ceftobiprole with beta-lactamases from molecular classes A to D” (Antimicrob Agents Chemother, 2007)
Blank lines part the entries; values can stand above or below the compound they belong to.

How the values were obtained:
Klebsiella pneumoniae [1] = test: Ratio of Kcat to Km of Klebsiella pneumoniae TEM26 assessed as drug hydrolysis by spectrophotometry
Klebsiella pneumoniae [2] = test: Activity of Klebsiella pneumoniae TEM26 assessed as drug hydrolysis by spectrophotometry
[3] = target: T1, Beta-lactamase (Klebsiella oxytoca) (UniProt Q8RT60); test: Activity of Klebsiella oxytoca beta-lactamase K1 assessed as drug hydrolysis by spectrophotometry relative to cephaloridine; set-up: scale not given: the % may be the effect or the level left
T1 sequence (whole entry): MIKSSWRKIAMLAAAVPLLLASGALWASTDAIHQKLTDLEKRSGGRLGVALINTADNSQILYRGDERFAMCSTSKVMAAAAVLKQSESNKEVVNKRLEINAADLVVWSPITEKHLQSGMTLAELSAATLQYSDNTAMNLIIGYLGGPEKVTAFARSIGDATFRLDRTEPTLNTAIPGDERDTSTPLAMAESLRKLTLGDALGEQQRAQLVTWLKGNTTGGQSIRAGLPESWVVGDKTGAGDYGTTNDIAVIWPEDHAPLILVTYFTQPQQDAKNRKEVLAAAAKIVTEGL

Klebsiella pneumoniae [4] = test: Activity of Klebsiella pneumoniae TEM26 assessed as drug hydrolysis by spectrophotometry relative to cephaloridine; set-up: scale not given: the % may be the effect or the level left
[5] = target: Beta-lactamase CTX-M (Escherichia coli) (UniProt Q9EXV5); test: Activity of Escherichia coli CTX-M-15 assessed as drug hydrolysis by spectrophotometry relative to cephaloridine; set-up: scale not given: the % may be the effect or the level left
Klebsiella pneumoniae [6] = test: Ratio of Kcat to Km of Klebsiella pneumoniae TEM26 assessed as drug hydrolysis by spectrophotometry relative to cephaloridine; set-up: scale not given: the % may be the effect or the level left
[7] = target: T1, Beta-lactamase (Klebsiella oxytoca); test: Ratio of Kcat to Km of Klebsiella oxytoca beta-lactamase K1 assessed as drug hydrolysis by spectrophotometry relative to cephaloridine; set-up: scale not given: the % may be the effect or the level left
[8] = target: Beta-lactamase CTX-M (Escherichia coli) (UniProt Q9EXV5); test: Ratio of Kcat to Km of Escherichia coli CTX-M-15 assessed as drug hydrolysis by spectrophotometry relative to cephaloridine; set-up: scale not given: the % may be the effect or the level left
[9] = target: Beta-lactamase (Pseudomonas aeruginosa (strain ATCC 15692 / PAO1 / 1C / PRS 101 / LMG12228)) (UniProt P24735); test: Ratio of Kcat to Km of Pseudomonas aeruginosa AmpC assessed as drug hydrolysis by spectrophotometry relative to cephaloridine; set-up: scale not given: the % may be the effect or the level left
Beta-lactamase (Pseudomonas aeruginosa (strain ATCC 15692 / PAO1 / 1C / PRS 101 / LMG12228)), sequence (P24735 27-397 limits assumed): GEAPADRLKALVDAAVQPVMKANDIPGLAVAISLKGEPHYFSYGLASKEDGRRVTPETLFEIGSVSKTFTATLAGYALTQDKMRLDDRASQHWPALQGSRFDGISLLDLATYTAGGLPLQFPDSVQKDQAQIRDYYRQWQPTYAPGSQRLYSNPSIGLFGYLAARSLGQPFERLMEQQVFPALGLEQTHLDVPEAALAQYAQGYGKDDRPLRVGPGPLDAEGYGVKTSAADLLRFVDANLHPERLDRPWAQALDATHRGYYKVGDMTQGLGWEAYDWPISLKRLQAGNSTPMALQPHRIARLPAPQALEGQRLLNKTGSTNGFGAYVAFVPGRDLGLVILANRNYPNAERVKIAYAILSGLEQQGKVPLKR

[10] = target: T2, Beta-lactamase SHV-1 (Klebsiella pneumoniae) (UniProt P0AD64); test: Ratio of Kcat to Km of Klebsiella pneumoniae SHV1 assessed as drug hydrolysis by spectrophotometry relative to cephaloridine; set-up: scale not given: the % may be the effect or the level left
T2 sequence (whole entry): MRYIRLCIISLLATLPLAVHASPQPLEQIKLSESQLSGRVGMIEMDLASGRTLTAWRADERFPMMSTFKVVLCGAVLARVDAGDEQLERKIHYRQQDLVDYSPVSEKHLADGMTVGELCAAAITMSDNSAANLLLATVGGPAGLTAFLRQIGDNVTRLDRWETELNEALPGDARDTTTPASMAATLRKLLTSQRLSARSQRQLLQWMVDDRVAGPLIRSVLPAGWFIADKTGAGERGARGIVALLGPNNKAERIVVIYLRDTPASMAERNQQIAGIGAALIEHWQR

[11] = target: Beta-lactamase (Serratia marcescens) (UniProt P18539); test: Activity of Serratia marcescens AmpC assessed as drug hydrolysis by spectrophotometry relative to cephaloridine; set-up: scale not given: the % may be the effect or the level left
Beta-lactamase (Serratia marcescens), sequence (P18539 whole entry): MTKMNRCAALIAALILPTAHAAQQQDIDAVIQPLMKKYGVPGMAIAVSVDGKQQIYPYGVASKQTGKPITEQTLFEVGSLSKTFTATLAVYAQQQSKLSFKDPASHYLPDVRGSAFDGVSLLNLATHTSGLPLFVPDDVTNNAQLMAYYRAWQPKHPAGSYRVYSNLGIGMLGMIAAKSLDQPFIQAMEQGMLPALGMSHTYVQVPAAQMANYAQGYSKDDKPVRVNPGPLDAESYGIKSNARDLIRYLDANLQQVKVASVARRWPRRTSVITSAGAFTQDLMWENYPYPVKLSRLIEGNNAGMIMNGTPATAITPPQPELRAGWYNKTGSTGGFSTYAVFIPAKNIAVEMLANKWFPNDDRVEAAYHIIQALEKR

[12] = target: T2, Beta-lactamase SHV-1 (Klebsiella pneumoniae); test: Activity of Klebsiella pneumoniae SHV1 assessed as drug hydrolysis by spectrophotometry relative to cephaloridine; set-up: scale not given: the % may be the effect or the level left
[13] = target: T3, Carbapenem-hydrolyzing beta-lactamase SME-3 (Serratia marcescens) (UniProt Q6PRG8); test: Activity of Serratia marcescens SME3 assessed as drug hydrolysis by spectrophotometry relative to cephaloridine; set-up: scale not given: the % may be the effect or the level left
T3 sequence (whole entry): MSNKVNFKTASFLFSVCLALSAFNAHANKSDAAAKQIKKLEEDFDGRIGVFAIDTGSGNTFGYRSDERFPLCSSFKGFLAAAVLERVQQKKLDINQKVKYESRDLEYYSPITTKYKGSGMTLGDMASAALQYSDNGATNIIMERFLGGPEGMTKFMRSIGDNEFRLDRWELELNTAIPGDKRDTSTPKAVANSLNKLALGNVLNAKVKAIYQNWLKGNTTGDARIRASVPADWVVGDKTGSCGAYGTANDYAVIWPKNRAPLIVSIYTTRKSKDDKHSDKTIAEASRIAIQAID

[14] = target: Beta-lactamase TEM (Escherichia coli) (UniProt P62593); test: Ratio of Kcat to Km of Escherichia coli TEM1 assessed as drug hydrolysis by spectrophotometry relative to cephaloridine; set-up: scale not given: the % may be the effect or the level left
Beta-lactamase TEM (Escherichia coli), sequence (P62593 whole entry): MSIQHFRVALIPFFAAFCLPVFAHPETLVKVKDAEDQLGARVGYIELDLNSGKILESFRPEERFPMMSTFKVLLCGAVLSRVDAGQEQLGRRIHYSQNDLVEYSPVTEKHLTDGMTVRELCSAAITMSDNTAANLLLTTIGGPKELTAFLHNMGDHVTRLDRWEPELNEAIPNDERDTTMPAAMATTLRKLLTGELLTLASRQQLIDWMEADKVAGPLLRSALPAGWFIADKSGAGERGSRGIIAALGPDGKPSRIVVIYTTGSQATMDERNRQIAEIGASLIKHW

[15] = target: Beta-lactamase (Pseudomonas aeruginosa (strain ATCC 15692 / PAO1 / 1C / PRS 101 / LMG12228)) (UniProt P24735); test: Ratio of Kcat to Km of Pseudomonas aeruginosa 18SH AmpC assessed as drug hydrolysis by spectrophotometry relative to cephaloridine; set-up: scale not given: the % may be the effect or the level left
[16] = target: Beta-lactamase (Morganella morganii) (UniProt P94958); test: Ratio of Kcat to Km of Morganella morganii AmpC assessed as drug hydrolysis by spectrophotometry relative to cephaloridine; set-up: scale not given: the % may be the effect or the level left
[17] = target: T3, Carbapenem-hydrolyzing beta-lactamase SME-3 (Serratia marcescens); test: Ratio of Kcat to Km of Serratia marcescens SME3 assessed as drug hydrolysis by spectrophotometry relative to cephaloridine; set-up: scale not given: the % may be the effect or the level left
[18] = target: Beta-lactamase TEM (Escherichia coli) (UniProt P62593); test: Activity of Escherichia coli TEM1 assessed as drug hydrolysis by spectrophotometry relative to cephaloridine; set-up: scale not given: the % may be the effect or the level left
[19] = target: Beta-lactamase (Morganella morganii) (UniProt P94958); test: Activity of Morganella morganii AmpC assessed as drug hydrolysis by spectrophotometry relative to cephaloridine; set-up: scale not given: the % may be the effect or the level left
[20] = target: Beta-lactamase (Pseudomonas aeruginosa (strain ATCC 15692 / PAO1 / 1C / PRS 101 / LMG12228)) (UniProt P24735); test: Ratio of Kcat to Km of Pseudomonas aeruginosa MK-1184 AmpC assessed as drug hydrolysis by spectrophotometry relative to cephaloridine; set-up: scale not given: the % may be the effect or the level left
[21] = target: Beta-lactamase (Pseudomonas aeruginosa (strain ATCC 15692 / PAO1 / 1C / PRS 101 / LMG12228)) (UniProt P24735); test: Activity of Pseudomonas aeruginosa 4352 AmpC assessed as drug hydrolysis by spectrophotometry relative to cephaloridine; set-up: scale not given: the % may be the effect or the level left
[22] = target: Metallo beta-lactamase (Pseudomonas aeruginosa) (UniProt Q6TUJ4); test: Ratio of Kcat to Km of Pseudomonas aeruginosa IMP1 assessed as drug hydrolysis by spectrophotometry relative to cephaloridine; set-up: scale not given: the % may be the effect or the level left
Metallo beta-lactamase (Pseudomonas aeruginosa), sequence (Q6TUJ4 as listed by the source): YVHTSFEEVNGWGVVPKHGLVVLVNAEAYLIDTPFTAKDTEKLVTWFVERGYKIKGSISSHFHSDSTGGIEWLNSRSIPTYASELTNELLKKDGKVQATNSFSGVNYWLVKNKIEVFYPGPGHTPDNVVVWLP

[23] = target: T4, Beta-lactamase (Providencia stuartii) (UniProt O69773); test: Activity of Providencia stuartii AmpC assessed as drug hydrolysis by spectrophotometry relative to cephaloridine; set-up: scale not given: the % may be the effect or the level left
T4 sequence (whole entry): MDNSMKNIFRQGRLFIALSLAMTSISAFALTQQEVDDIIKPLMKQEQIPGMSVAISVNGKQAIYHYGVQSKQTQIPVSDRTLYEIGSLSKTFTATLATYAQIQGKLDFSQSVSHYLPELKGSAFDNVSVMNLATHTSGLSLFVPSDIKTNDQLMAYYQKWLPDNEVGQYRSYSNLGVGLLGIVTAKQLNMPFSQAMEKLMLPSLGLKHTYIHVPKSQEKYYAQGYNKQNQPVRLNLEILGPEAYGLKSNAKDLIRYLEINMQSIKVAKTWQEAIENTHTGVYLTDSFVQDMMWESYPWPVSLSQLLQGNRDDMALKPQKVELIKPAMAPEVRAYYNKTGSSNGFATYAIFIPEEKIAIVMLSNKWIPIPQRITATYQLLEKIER

[24] = target: Beta-lactamase (Staphylococcus aureus) (UniProt P00807); test: Activity of Staphylococcus aureus betalactamase PC1 assessed as drug hydrolysis by spectrophotometry relative to cephaloridine; set-up: scale not given: the % may be the effect or the level left
[25] = target: Beta-lactamase (Staphylococcus aureus) (UniProt P00807); test: Ratio of Kcat to Km of Staphylococcus aureus betalactamase PC1 assessed as drug hydrolysis by spectrophotometry relative to cephaloridine; set-up: scale not given: the % may be the effect or the level left
[26] = target: Beta-lactamase (Pseudomonas aeruginosa (strain ATCC 15692 / PAO1 / 1C / PRS 101 / LMG12228)) (UniProt P24735); test: Activity of Pseudomonas aeruginosa MK-1184 AmpC assessed as drug hydrolysis by spectrophotometry relative to cephaloridine; set-up: scale not given: the % may be the effect or the level left
[27] = target: T4, Beta-lactamase (Providencia stuartii); test: Ratio of Kcat to Km of Providencia stuartii AmpC assessed as drug hydrolysis by spectrophotometry relative to cephaloridine; set-up: scale not given: the % may be the effect or the level left
[28] = target: Beta-lactamase VIM-2 (Pseudomonas aeruginosa) (UniProt Q9K2N0); test: Activity of Pseudomonas aeruginosa VIM2 assessed as drug hydrolysis by spectrophotometry relative to cephaloridine; set-up: scale not given: the % may be the effect or the level left
[29] = target: Beta-lactamase (Pseudomonas aeruginosa (strain ATCC 15692 / PAO1 / 1C / PRS 101 / LMG12228)) (UniProt P24735); test: Ratio of Kcat to Km of Pseudomonas aeruginosa 4352 AmpC assessed as drug hydrolysis by spectrophotometry relative to cephaloridine; set-up: scale not given: the % may be the effect or the level left
[30] = target: Beta-lactamase (Pseudomonas aeruginosa (strain ATCC 15692 / PAO1 / 1C / PRS 101 / LMG12228)) (UniProt P24735); test: Activity of Pseudomonas aeruginosa 18SH AmpC assessed as drug hydrolysis by spectrophotometry relative to cephaloridine; set-up: scale not given: the % may be the effect or the level left
[31] = target: Beta-lactamase VIM-2 (Pseudomonas aeruginosa) (UniProt Q9K2N0); test: Ratio of Kcat to Km of Pseudomonas aeruginosa VIM2 assessed as drug hydrolysis by spectrophotometry relative to cephaloridine; set-up: scale not given: the % may be the effect or the level left
[32] = target: Beta-lactamase (Pseudomonas aeruginosa (strain ATCC 15692 / PAO1 / 1C / PRS 101 / LMG12228)) (UniProt P24735); test: Activity of Pseudomonas aeruginosa AmpC assessed as drug hydrolysis by spectrophotometry relative to cephaloridine; set-up: scale not given: the % may be the effect or the level left
[33] = target: Beta-lactamase (Serratia marcescens) (UniProt P18539); test: Ratio of Kcat to Km of Serratia marcescens AmpC assessed as drug hydrolysis by spectrophotometry relative to cephaloridine; set-up: scale not given: the % may be the effect or the level left

- kcat/Km (Klebsiella pneumoniae [1]): 190000 M⁻¹ s⁻¹
- Km (Klebsiella pneumoniae [2]): 15 µM
- kcat (Klebsiella pneumoniae [2]): 2.9 s⁻¹
- Activity [3]: 13%
- Activity (Klebsiella pneumoniae [4]): 7.8%
- Activity [5]: 95%
- Activity (Klebsiella pneumoniae [6]): 34%
- Activity [7]: 2.3%
- Activity [8]: 140%
SMILES: CO/N=C(\C(=O)N[C@@H]1C(=O)N2C(C(=O)O)=C(COC(C)=O)CS[C@H]12)c1csc(N)n1

- Activity [9]: 14000%
- Activity [10]: 2600%
- Activity [11]: 0.95%
- Activity [12]: 260%
- kcat/Km (Klebsiella pneumoniae [1]): 1.5e+07 M⁻¹ s⁻¹
- Activity [13]: 0.73%
- Activity [14]: 5600%
- Activity [15]: 61%
- Activity [16]: 860%
- Activity [17]: 130%
- Activity [18]: 122%
- Activity [19]: 26%
- Activity [20]: 670%
- Activity [21]: 37%
- Activity [22]: 750%
- Km (Klebsiella pneumoniae [2]): 5 µM
- kcat (Klebsiella pneumoniae [2]): 76 s⁻¹
- Activity [23]: 0.62%
- Activity [24]: 46000%
- Activity [25]: 1.5e+06%
- Activity [26]: 91%
- Activity [27]: 43%
- Activity [3]: 160%
- Activity (Klebsiella pneumoniae [4]): 210%
- Activity [28]: 61%
- Activity [5]: 25%
- Activity [29]: 1100%
- Activity [30]: 35%
- Activity [31]: 570%
- Activity (Klebsiella pneumoniae [6]): 2700%
- Activity [32]: 540%
- Activity [7]: 400%
- Activity [33]: 290%
- Activity [8]: 110%
SMILES: CC1(C)S[C@@H]2[C@H](NC(=O)Cc3ccccc3)C(=O)N2[C@H]1C(=O)O
